The record followed here is ChEMBL document CHEMBL4811228, “Design, Synthesis, and Activity Evaluation of Novel Acyclic Nucleosides as Potential Anticancer Agents In Vitro and In Vivo” (J Med Chem, 2021).

The source made the active and inactive calls. No cut-off for these calls is given here.

Experiment [1] has as its system U-87 MG. The experiment in a line: Antiproliferative activity against human U-87 MG cells assessed as reduction in cell viability incubated for 48 hrs by MTT assay. It is filed as functional, cell-based, U-87MG ATCC.
Experiment [2] relates to HeLa. The experiment in a line: Antiproliferative activity against human HeLa cells assessed as reduction in cell viability incubated for 48 hrs by MTT assay. Format: functional, cell-based. A general note: Tetrazolium dyes change colour on reduction, which living cells bring about.
Experiment [3] relates to HCT-116. Briefly: Antiproliferative activity against human HCT-116 cells assessed as reduction in cell viability incubated for 48 hrs by MTT assay. It is filed as functional, cell-based. The note with it: HCT-116, 48 h.
Experiment [4] concerns A549. Briefly: Antiproliferative activity against human A549 cells assessed as reduction in cell viability incubated for 48 hrs by MTT assay. Format: functional, cell-based. Conditions: A549, 48 h.
For experiment [5], the system named is SW480. Briefly: Antiproliferative activity against human SW480 cells assessed as reduction in cell viability incubated for 48 hrs by MTT assay. Format: functional, cell-based. Conditions: SW480, 48 h.
The test system of experiment [6] is SW480. Briefly: Binding affinity to 75kDa protein in human SW480 cells incubated for overnight by pull down based silver staining analysis. Format: cell-based.
For experiment [7], the system named is SW480. The experiment in a line: Binding affinity to 75kDa protein in human SW480 cells incubated for overnight by pull down based western blot analysis. It is filed as cell-based.
Experiment [8] has as its system HCT-116. The experiment in a line: Potency index, ratio of 5-FU IC50 to test compound IC50 for antiproliferative activity against human HCT-116 cells. Format: functional.

For the molecule `O=c1[nH]cc(F)c(=O)[nH]1` [FLUOROURACIL], the IC50 in experiment [1] is more than 50 µM; in experiment [2] it was more than 50 µM; in experiment [3] it was 10.8 µM; in experiment [4] it was more than 50 µM; in experiment [5] it was 9.7 µM.

As to `C#CCCC1(CCNC(=O)CC(CCCCCCCCC)n2cnc3c(Cl)ncnc32)N=N1` (racemic), the result in experiment [6] and in experiment [7] was Active. Besides, the IC50 in experiment [3] worked out at 21.5 µM; in experiment [5], 13 µM.

On to `CCCCCCCCCC(CC(=O)NCCCCCNC(=O)CCCC[C@@H]1SC[C@@H]2NC(=O)N[C@@H]21)n1cnc2c(Cl)ncnc21` (mixture of isomers), for which the outcome in experiment [6] was Active. Moreover, the IC50 in experiment [3] turned out to be 44.7 µM; in experiment [5] it was 45.2 µM.

As to `CCCCCCCCCC(CCOS(C)(=O)=O)n1cnc2c(Cl)ncnc21` (racemic), the results for the IC50 in experiment [3] and in experiment [5] were 5.44 µM and 5.39 µM, respectively.

Regarding `CCCCCCC(CCO)n1cnc2c(OC)ncnc21` (racemic), the half-inhibitory concentration (IC50) in experiment [3] and in experiment [5] was more than 50 µM throughout.

In the case of `CCCCCCCC(CCO)n1cnc2c(N)ncnc21` (racemic), the IC50 in experiment [3] and in experiment [5] was more than 50 µM throughout.

Consider `CCCC(CCO)n1cnc2c(Cl)nc(F)nc21` (racemic), for which the IC50 in experiment [3] stood at 16.5 µM; in experiment [5], 17.2 µM.

Consider `CCCCCCCCC(CCO)n1c(Br)nc2c(Cl)ncnc21` (racemic), for which the results for the IC50 in experiment [3] and in experiment [5] were 22.4 µM and 17.8 µM, respectively.

With `CCCCC(CCO)n1cnc2cncnc21` (racemic), the IC50 in experiment [3] and in experiment [5] was more than 50 µM throughout.

For the molecule `CCCCCCCCCC(CCO)n1cnc2c(NC)ncnc21` (racemic), the figures for the IC50 in experiment [3] and in experiment [5] were 5.41 µM and 4.45 µM, respectively.

Regarding `CCCCCCCC(CCO)n1cnc2c(Cl)nc(Cl)nc21` (racemic), the IC50 was 12.8 µM in experiment [3] and 13.6 µM in experiment [5].

As for `CCCCCCCCCC(CCOCP(=O)(OCC)OCC)n1cnc2c(Cl)ncnc21` (racemic), the IC50 in experiment [3] amounted to 9.11 µM; in experiment [5] it was 4.79 µM.

In the case of `CCCCCC(CCO)n1cnc2c(Cl)nc(Cl)nc21` (racemic), the 50% inhibitory concentration (IC50) in experiment [3] was found to be 6.17 µM; in experiment [5] it was 6.01 µM.

Regarding `CCCCCCCC(CCO)n1c(Br)nc2c(Cl)ncnc21` (racemic), the IC50 in experiment [3] turned out to be 16.2 µM; in experiment [5], 14.4 µM.

Turning to `CCCCCCCCCCC(CCO)n1cnc2c(N)ncnc21` (racemic), the IC50 in experiment [3] amounted to 2.59 µM. The “Ratio IC50” value in experiment [8] stood at 4.

On to `CCCCCCCCCC(CCO)n1cnc2c(N)nc(Cl)nc21` (racemic), for which the IC50 amounted to 14.8 µM in experiment [3] and 12.2 µM in experiment [5].

Take `CCCCCC(CCO)n1c(Br)nc2c(Cl)ncnc21` (racemic): the IC50 in experiment [3] is 18.3 µM; in experiment [5], 23.8 µM.

As for `CCCCCCCCCC(CCO)n1cnc2c(Cl)nc(F)nc21` (racemic), the IC50 in experiment [3] was 32 µM; in experiment [5] it was 12.5 µM.

For the molecule `CCCCCCCCCC(CCO)n1c(Br)nc2c(Cl)ncnc21` (racemic), the IC50 was 26.9 µM in experiment [3] and 25 µM in experiment [5].

For the molecule `CCCCCCCC(CCO)n1cnc2c(NC)ncnc21` (racemic), the figures for the IC50 in experiment [3] and in experiment [5] were 12.5 µM and 15.3 µM, respectively.

As for `CCCCC(CCO)n1cnc2c(Cl)nc(Cl)nc21` (racemic), the IC50 amounted to 15.5 µM in experiment [3] and 30.9 µM in experiment [5].

For the molecule `CCCCCCCC(CCO)n1cnc2c(Cl)ncnc21` (racemic), the IC50 in experiment [3] worked out at 4.16 µM; in experiment [5], 3.63 µM.

For `CCCCCCCCCC(CCN=[N+]=[N-])n1cnc2c(Cl)ncnc21` (racemic), the IC50 in experiment [3] was determined as 1.04 µM; in experiment [5] it was 1.2 µM.

Consider `CCCCCCCC[C@H](CCO)n1cnc2c(Cl)ncnc21`, for which the IC50 turned out to be 1.12 µM in experiment [3] and 0.32 µM in experiment [5].

As to `CCCCCCCCC(CCO)n1cnc2c(NC)ncnc21` (racemic), the IC50 in experiment [3] turned out to be 3.73 µM; in experiment [5], 3.77 µM.

As for `CCCCCCCCC[C@H](CCO)n1cnc2c(Cl)ncnc21`, the IC50 stood at 0.45 µM in experiment [3] and 1.63 µM in experiment [5].

Consider `CCCCCCCCCCC(CCO)n1cnc2c(OC)ncnc21` (racemic), for which the figures for the IC50 in experiment [3] and in experiment [5] were 7.53 µM and 8.26 µM, respectively.

As to `CCCCC(CCO)n1cnc2c(Cl)ncnc21` (racemic), the IC50 in experiment [3] and in experiment [5] was more than 50 µM in each case.

Regarding `CCCCCCC(CCO)n1cnc2c(N)nc(Cl)nc21` (racemic), the IC50 in experiment [3] and in experiment [5] was more than 50 µM throughout.

On to `CCCCCCCCCCC(CCO)n1cnc2c(NC)ncnc21` (racemic), for which the IC50 stood at 12.7 µM in experiment [3] and 12 µM in experiment [5].

`C#CCCC1(CCN)N=N1`: in experiment [7], the result was inactive.

In the case of `CCCCCCCCCCCC(CCO)n1cnc2c(OC)ncnc21` (racemic), the IC50 came out at 8.23 µM in experiment [3] and 9.7 µM in experiment [5].

In the case of `C=C(CO)C(CCCCCCCCC)n1cnc2c(Cl)ncnc21` (racemic), the results for the IC50 in experiment [3] and in experiment [5] were more than 50 µM and 27.6 µM, respectively.

Usually IC50 stands for the concentration at which inhibition is half-maximal.
